Experimental data: ChEMBL document CHEMBL1201862, “PubChem BioAssay data set” (2004)
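Five compound concentrations were applied to cells in 96-well plates for 48 hours; endpoints were derived by simple linear interpolation of the resulting dose-response curve. GI50 = concentration required for 50% inhibition of growth.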 Calls of active or inactive are those of the source. Cut-off read from the data, not from the text of the source: active = GI50 up to about 1.1 µM and inactive = higher.

Tests used:
Assay in all cases: NCI tumour cell line growth inhibition, 48 h
[1] = test system: 786-0
[2] = test system: BT-549
[3] = test system: COLO 205
[4] = test system: HCC 2998
[5] = test system: HCT-116
[6] = test system: HL-60
[7] = test system: MDA-N
[8] = test system: MOLT-4
[9] = test system: NCI-H23
[10] = test system: NCI-H460
[11] = test system: OVCAR-3
[12] = test system: OVCAR-4
[13] = test system: RXF 393
[14] = test system: SF-295
[15] = test system: SK-MEL-5
[16] = test system: SN12C
[17] = test system: SW-620
[18] = test system: TK-10
[19] = test system: UO-31

Measured: GI50

O=C(O)c1cccc(CC(Br)C(=O)O)c1 (stereo unspecified)
inactive: [1] > 100 µM | [2] > 100 µM | [3] > 100 µM | [4] > 100 µM | [5] > 100 µM | [6] > 100 µM | [7] > 100 µM | [8] > 100 µM | [9] > 100 µM | [10] > 100 µM | [11] > 100 µM | [12] > 100 µM | [13] > 100 µM | [14] > 100 µM | [15] > 100 µM | [16] > 100 µM | [17] > 100 µM | [18] > 100 µM | [19] > 100 µM

O=[N+]([O-])c1ccc(OP(=O)(O)OCC2OC(CP(=O)(O)O)C(O)C2O)cc1 (stereo unspecified)
inactive: [1] > 100 µM | [2] > 100 µM | [3] > 100 µM | [4] > 100 µM | [5] > 100 µM | [6] > 100 µM | [7] > 100 µM | [8] > 100 µM | [9] > 100 µM | [10] > 100 µM | [11] > 100 µM | [12] > 100 µM | [13] > 100 µM | [14] > 100 µM | [15] > 100 µM | [16] > 100 µM | [17] > 100 µM | [18] > 100 µM | [19] > 100 µM

Cc1cc2occ(S(=O)(=O)NC(=O)Nc3ccc(Cl)cc3)c(=O)c2c(=O)o1
inactive: [1] > 100 µM | [2] > 100 µM | [3] > 100 µM | [4] > 100 µM | [5] > 100 µM | [6] > 100 µM | [7] > 100 µM | [8] > 100 µM | [9] > 100 µM | [10] > 100 µM | [11] > 100 µM | [12] > 100 µM | [13] > 100 µM | [14] > 100 µM | [15] > 100 µM | [16] > 100 µM | [17] > 100 µM | [18] > 100 µM | [19] > 100 µM

Cc1nc2cc(F)c(F)cc2[nH]c1=O
inactive: [1] > 100 µM | [2] > 100 µM | [3] > 100 µM | [4] > 100 µM | [5] > 100 µM | [6] > 100 µM | [7] > 100 µM | [8] > 100 µM | [9] > 100 µM | [10] > 100 µM | [11] > 100 µM | [12] > 100 µM | [13] > 100 µM | [14] > 100 µM | [15] > 100 µM | [16] > 100 µM | [17] > 100 µM | [18] > 100 µM | [19] > 100 µM

CC(=O)NC1C(OCc2ccccc2)OC(CO)C(O)C1OC(C)C(=O)NC(C(=O)NC(CCC(=O)NCCCC(=O)Nc1ccc2c(c1)CN1C(=O)c3ccccc3C1=N2)C(N)=O)C(C)C (stereo unspecified)
inactive: [1] > 100 µM | [2] > 100 µM | [3] > 100 µM | [4] > 100 µM | [5] > 100 µM | [6] > 100 µM | [7] > 100 µM | [8] > 100 µM | [9] > 100 µM | [10] > 100 µM | [11] > 100 µM | [12] > 100 µM | [13] > 100 µM | [14] > 100 µM | [15] > 100 µM | [16] > 100 µM | [17] > 100 µM | [18] > 100 µM | [19] > 100 µM

CCCC1(NC(=O)C(F)(F)F)CC(OC)OC2COC(c3ccccc3)OC21 (stereo unspecified)
inactive: [1] 76.2 µM | [2] 58.6 µM | [3] 21.1 µM | [4] 52.2 µM | [5] 42.1 µM | [6] 27.1 µM | [7] 59.4 µM | [8] 26.2 µM | [9] 34.5 µM | [10] 34 µM | [11] > 100 µM | [12] 6.25 µM | [13] 94.6 µM | [14] 50.7 µM | [15] 16.9 µM | [16] > 100 µM | [17] 53 µM | [19] 35 µM

Cn1c2ccccc2n2c3ncccc3/c(=N/CCCC(=O)O)c(C#N)c12
inactive: [1] > 100 µM | [2] > 100 µM | [3] > 100 µM | [4] > 100 µM | [5] > 100 µM | [6] > 100 µM | [7] > 100 µM | [8] > 100 µM | [9] > 100 µM | [10] > 100 µM | [11] > 100 µM | [12] > 100 µM | [13] > 100 µM | [14] > 100 µM | [15] > 100 µM | [16] > 100 µM | [17] > 100 µM | [19] > 100 µM
